From patent US11331290B2, “Niclosamide for the treatment of cancer metastasis” (Max-Delbrück-Centrum für Molekulare Medizin in der …, priority 2011, dated 2022)

Key:
HCT116 cells = assay: Cytotoxicity (cell viability) of niclosamide; type: cell-based; conditions: Homo sapiens, HCT-116, 24 h, 95% CI 1.87 to 2.92 μM
Experimental: To determine an applicable niclosamide concentration, the cytotoxicity of niclosamide on HCT116 cells was analyzed. […] No change in S100A4 expression could be detected with concentrations below 1 μM niclosamide.
All calculations and statistical analyses were performed with GraphPad Prism version 4.01. Student t test was used for comparison of only two groups. One-way analysis of variance (ANOVA) was applied for comparing the control group with several treated groups followed by Bonferroni post hoc multiple comparisons. […] Kaplan-Meier analysis was used to plot overall survival and differences in curves were analyzed by Logrank test. […]
(A) Determination of the cytotoxicity of niclosamide on HCT116 cells. Cells were treated with increasing concentrations of niclosamide for 24 hours and cell viability was measured. […] S100A4 expression was determined by quantitative reverse-transcription-polymerase chain reaction (qRT-PCR) and immunoblot. […] HCT116 cells were treated with a single dose of 1 μM niclosamide for 24 hours and S100A4 expression was analyzed by qRT-PCR and immunoblot at indicated time points. […] HCT116 cells were treated daily with 1 μM niclosamide and S100A4 expression was analyzed by qRT-PCR and immunoblot. […]

S100A4 mRNA = S100A4 mRNA in spleen tumor of xenograft mice (qRT-PCR); type: in vivo; conditions: for S100A4 mRNA level in spleen tumor, mean % of control mice / S100A4 mRNA level in spleen tumor, mean difference control vs niclosamide: day 24
Experimental: All experiments were performed in accordance with the UKCCCR guidelines and approved by the responsible local authorities (State Office of Health and Social Affairs, Berlin, Germany). HCT116-CMVp-LUC cells (3×10^6 cells per mouse, resuspended in 50 μL PBS) were intrasplenically transplanted into 6-week-old female nonobese diabetic-severe combined immunodeficiency (NOD-SCID) mice. Mice were randomly assigned to 3 groups and reatment of mice started 24 hours after cell transplantation. Mice of the control group (n=9) were treated with daily doses of solvent. Mice of the second group (n=9) were daily treated intraperitoneally with 20 mg per kg niclosamide. Mice of the third group (n=9) were treated intraperitoneally with two doses of 15 mg per kg niclosamide per day. The experimental endpoint was reached when mice appeared moribund and/or the spleen tumor was palpable. This was the case with the majority of control mice on day 24. For long-term in vivo experiments mice randomly assigned to 3 groups. Mice of the control group (n=6) were treated intraperitoneally with daily doses of solvent. Mice of the second group (n=6) were daily treated intraperitoneally with 20 mg per kg niclosamide. Mice of the third group (n=6) were daily treated intraperitoneally for 24 days with 20 mg per kg niclosamide and for the residual days with solvent. Mice were killed by cervical dislocation when tumor reached the maximum in accordance with the local authorities.
Spleen (as the transplantation site) and liver (as a metastasis target organ) were removed. The amount of S100A4 mRNA in the tumor was determined by Trizol RNA isolation of tumor cryosections and quantitative real-time RT-PCR. The level of metastasis was evaluated by scoring. For each liver, a score was calculated as the sum of the volumes of the individual metastases. For each metastasis the formula [width2]×length was applied.
(A) In vivo luminescence imaging of metastasis under niclosamide treatment. HCT116-CMVp-LUC cells stably expressing firefly luciferase (LUC) were intrasplenically transplanted into mice (per group n=4) followed by daily intraperitoneal treatment with 20 mg per kg niclosamide. For luminescence imaging, mice were anesthetized at the indicated days and received intraperitoneally D-luciferin. Exposure time for lateral and ventral imaging was 20 seconds per picture. In situ imaging and imaging of isolated organs was performed for 1 second per picture exposure time. Signal intensity of grayscale images (256 scale) were color coded (from low to high signal intensity: blue, green, yellow, red, white) and overlayed with bright field picture. (B) S100A4 mRNA level in spleen tumor of niclosamide-treated xenograft mice. Spleens from mice (per group n=9) were dissected on day 24. Tumor tissue was cryosected for RNA isolation. S100A4 mRNA level was measured by qRT-PCR and expressed as percentage of control mice. Differences were analyzed by two-sided one-way analysis of variance and Bonferroni post hoc multiple comparison test. Bars represent mean±SD. (C) Liver metastases size in niclosamide-treated xenograft mice. Liver was dissected from xenograft mice (per group n=9) intraperitoneally treated twice per day with 15 mg per kg or daily with 20 mg per kg niclosamide for 24 days. Metastasis was quantified by scoring. Data is given as mean±SD.
(A) S100A4 expression in vitro after discontinued niclosamide treatment. HCT116 cells were treated daily with 1 μM niclosamide for three consecutive days, medium was removed on day 4, and S100A4 expression was analyzed 24, 48, and 72 hours after niclosamide removal. S100A4 expression was analyzed by qRT-PCR and immunoblot. (B) Cell migration after discontinued niclosamide treatment. Cell migration rates of HCT116 cells treated as in (A) were determined by Boyden chamber assay. Differences in control vs. treated cells were analyzed by Student's t test. (C) Anchorage-dependent cell proliferation after discontinued niclosamide treatment. […]

[1] = 20 mg per kg daily intraperitoneally
[2] = 2×15 mg per kg per day intraperitoneally

O=C(Nc1ccc([N+](=O)[O-])cc1Cl)c1cc(Cl)ccc1O [niclosamide, 2′,5-dichloro-4′-nitrosalicylanilide]
EC50 (HCT116 cells): 2200 nM
S100A4 mRNA level in spleen tumor, mean % of control mice (S100A4 mRNA; [1]): 67.2%
S100A4 mRNA level in spleen tumor, mean difference control vs niclosamide (S100A4 mRNA; [1]): 32.9%
S100A4 mRNA level in spleen tumor, mean % of control mice (S100A4 mRNA; [2]): 58.4%
S100A4 mRNA level in spleen tumor, mean difference control vs niclosamide (S100A4 mRNA; [2]): 41.7%
S100A4 mRNA level in spleen tumor, mean difference control vs treatment (S100A4 mRNA; continuous treatment): 27%
S100A4 mRNA level in spleen tumor, mean % of control animals (S100A4 mRNA; continuous treatment (20 mg per kg i.p. daily)): 73%
S100A4 mRNA level in spleen tumor, mean difference control vs treatment (S100A4 mRNA; discontinuous treatment): 40.0%
S100A4 mRNA level in spleen tumor, mean % of control animals (S100A4 mRNA; discontinuous treatment (20 mg per kg i.p. for 24 days, then solvent)): 60%
